# Test results reported in patent US20170029531A1, “INHIBITION OF LACTATE DEHYDROGENASE 5 (LDH-5) BINDING, INCORPORATION, INTERNALIZATION AND/OR ENDOCYTOSIS TO IMMUNE CELLS” (Seattle Children's Hospital (dba Seattle Children's …, priority 2014, published 2017).
# Experiments:
# primary human NK cells = test: NKG2D expression and CD107a degranulation of primary human NK cells after incubation with LDH or lactate; assay type: cell-based; conditions: LDH 50 ug/mL or lactate 20 mM; 12 hour (NKG2D, NKp46) or 6 hour after IL-2 (CD107a)
# Text: FIG. 2. Biochemical purification of tumor-derived Lactate Dehydrogenase, expression in glioma cell lines and verification of LDH-mediated induction of NKG2D ligands on monocytes. (Panel A) Protein purification strategy. […] of U87 glioblastoma cell line supernatant were subjected to ammonium sulfate precipitation. Active fractions were passed over a phenyl Sepharose column and active fractions were then subjected to size exclusion (Superdex 200), followed by ion exchange (MonoS) before Mass Spectroscopy (MS) analysis. (Panel B) Following separation by chromatography, fractions were dialyzed into PBS and cultured with MHD (healthy monocytes) for 18 hours. Whole cell mRNA was reverse transcribed, and induction of MICB and ULBP-1 was analyzed relative to media alone controls. […] (Panel C) mRNA isolated from PBMC of healthy donors, 293T cells (as negative controls), and U87, U251, and SF767 glioma cell lines were analyzed for expression of LDHA and LDHB by qPCR. (Panel D) A 1:10 dilution of fresh, unfrozen glioblastoma cell line supernatants was analyzed for total LDH enzymatic activity and expressed as OD 495 nm. […] Eighteen hours later, mRNA was isolated and analyzed for MICA, MICB, and ULBP-1 by qPCR. […] Eighteen hours later, mRNA was isolated and analyzed for MICA, MICB and ULBP-1 by qPCR. […] Eighteen hours later, MICB (black bars) and ULBP-1 (gray bars) were measured by qPCR. […]
# U87 = U87 mitochondrial function and viability after overnight LDH5; assay type: cell-based
# Method: FIG. 30. U87 mitochondrial function. […] U87 were treated overnight with LDH5 then with controls 100 uM FCCP (depolarizer) or 200 ng/mL staurosporine (hyperpolarizer) for 10 min. Cells were then loaded with the mitochondrial membrane potential sensitive dye Mitotracker CMXRos for 15 min then fixed in 2% PF. Fluorescence intensity was measured by flow cytometry.
# FIG. 31. U87 mitochondrial function. […] U87 were treated overnight with LDH5. Cells were fixed in 2% PF and immunostained with an anti-mitochondrial antibody and phalloidin (actin) Mitochondrial and cell surface area were calculated by Nuance software.
# FIG. 32. U87 mitochondrial function. […] U87 were treated overnight with LDH5 then with 200 ng/mL staurosporine for 5 or 24 hours. Cells were then trypsinized, stained with Annexin 594 and analyzed by flow cytometry.
# Experimental wells were pulsed with 50 ug/mL LDH-A488 for 24 hours as indicated (control wells received no LDH) at 37° C. Cells were treated for 2 min with 0.5M acetic acid+150 mM NaCl (pH 2.5), followed by 4 subsequent washes in RPMI+10% FBS. […] (See FIGS. 31-32).
# [1] = test system: monocytes from healthy donors; test: NKG2D ligand (MICA, MICB, ULBP-1) mRNA induction in monocytes from healthy donors (MHD), qPCR; assay type: cell-based, human
# Text: FIG. 2. Biochemical purification of tumor-derived Lactate Dehydrogenase, expression in glioma cell lines and verification of LDH-mediated induction of NKG2D ligands on monocytes. (Panel A) Protein purification strategy. […] of U87 glioblastoma cell line supernatant were subjected to ammonium sulfate precipitation. Active fractions were passed over a phenyl Sepharose column and active fractions were then subjected to size exclusion (Superdex 200), followed by ion exchange (MonoS) before Mass Spectroscopy (MS) analysis. (Panel B) Following separation by chromatography, fractions were dialyzed into PBS and cultured with MHD (healthy monocytes) for 18 hours. Whole cell mRNA was reverse transcribed, and induction of MICB and ULBP-1 was analyzed relative to media alone controls. Western blot analysis using a monoclonal antibody to LDH-5 (ab101562) was performed on […] of total protein to confirm the presence of LDH-5 in the active fractions. (Panel C) mRNA isolated from PBMC of healthy donors, 293T cells (as negative controls), and U87, U251, and SF767 glioma cell lines were analyzed for expression of LDHA and LDHB by qPCR. (Panel D) A 1:10 dilution of fresh, unfrozen glioblastoma cell line supernatants was analyzed for total LDH enzymatic activity and expressed as OD 495 nm. (Panel E) Validation of LDH induction of NKG2D ligands in monocytes. Six hundred twenty five U/L of purified, native LDH-5, fresh U87 supernatant, or fresh U87 supernatant in the presence of 100 mM sodium oxamate (NaOx) were cultured with MHD. Eighteen hours later, mRNA was isolated and analyzed for MICA, MICB, and ULBP-1 by qPCR. Values represent induction relative to MHD cultured in media alone. (Panel F) Fresh U87 supernatant, 625 U/L of purified, native LDH-5, LDH-5+0.5 mM Pyruvate (Pyr), or LDH-5+0.5 mM pyruvate and 100 mM NaOx were cultured with MHD. Eighteen hours later, mRNA was isolated and analyzed for MICA, MICB and ULBP-1 by qPCR. Values represent induction relative to MHD cultured in media alone. (Panel G) MHD were cultured with native LDH-5 isolated from liver cells. Eighteen hours later, MICB (black bars) and ULBP-1 (gray bars) were measured by qPCR. (Panel H) Expression of NKG2D and NKp46 on primary human NK cells following a 12 hour incubation with LDH (50 ug/mL) or lactate (20 mM). Cells were surface stained with antibodies directed against CD3, CD56, NKG2D, and NKp46 and analyzed by flow cytometry. The expression level of NKG2D and NKp46 are plotted against CD56. (Panel I) Expression of CD107a on primary human NK cells following IL-2 (1000 U/ml) activation and a 6 hour incubation with LDH (50 ug/mL) or lactate (20 mM). Cells were surface stained with antibodies directed against CD3, CD56, and CD107a and analyzed by flow cytometry. Representative data are shown in the top panels, a summary of percent CD107a+NK cells is shown below. (Panel J) 293T cells were transiently transfected with a pcDNA3.1 (−) vector encoding either LDHA or LDHB, or both constructs. Supernatant was then cultured with CD14-positively selected MHD. Eighteen hours later, MICB and ULBP-1 were measured by qPCR. Values represent induction relative to monocytes cultured in media alone. *P<0.05, **P<0.01.
# FIG. 21. Purified native LDH5 or LDH1 was cultured with monocytes from healthy donors. Eighteen hours later, MICB and ULBP-1 were measured by qPCR. Values represent induction relative to monocytes cultured in medium alone. […]
# [2] = U87 treated overnight with LDH5
# [3] = 156 U/L enzymatically active LDH5 from human liver, monocytes
substance,measurement,setting,value
"LDH5: purified native lactate dehydrogenase isoenzyme 5, alpha only tetramer; fluorescently labeled in uptake tests",NK cell NKG2D expression or degranulation,primary human NK cells,neither lactate nor LDH-5 alone directly impacted
same,Viability / staurosporine induced apoptosis (Annexin),"U87; U87 overnight LDH5, then 200 ng/mL staurosporine for 5 or 24 hours","does not reduce viability, nor rescue from staurosporine induced apoptosis"
same,Mitochondrial membrane potential (Mitotracker CMXRos),U87; [2],depolarizes mitochondrial membrane
same,Mitochondrial surface area,U87; [2],does not change
same,MICB gene expression compared with medium alone,[1]; [3],7.85 fold induction
same,ULBP-1 gene expression compared with medium alone,[1]; [3],13.26 fold induction
same,Lowest concentration of purified native LDH5 that induced transcription of MICB and ULBP-1,"[1]; monocytes from healthy donors, 18 h, qPCR, FIG. 2 panel G",156 U/L
same,LDH5 concentration that induced a maximal increase in NKG2D ligand transcription,"[1]; monocytes, concentrations above this induced less transcription",625 U/L
